Values belong to the compound of their own block, whether it stands above or below them. {FAM} = FAM (fluorescein) label on dsDNA for MST
Assays:
HRP3 PWWP Y22A = target: T1, HRP3 PWWP Y22A (Homo sapiens, UniProt Q9Y3E1, Y22A); experiment: NMR titration of H3K36me3 peptide with HRP3 PWWP Y22A; assay type: binding; details: H3 residues 29–41, 20 mM PBS pH 6.9, 298 K
T1 construct: using ^15N-labelled HRP3 PWWP (residues 1–110) dissolved in buffer; 6xHis-SUMO (cleaved yes); made in house; host or cells: Escherichia coli Rosetta (DE3)
Description: (§1) All 2D ^1H-^15N HSQC NMR spectra were collected on the Bruker Avance III HD 600 MHz and 800 MHz spectrometers at 298 K. The NMR data were processed by NMRPipe ([39]) and analysed by KUJIRA ([40]) running with NMRview ([41]) softwares. Chemical shift perturbation experiments were carried out using ^15N-labelled HRP3 PWWP (residues 1–110) dissolved in buffer containing 20 mM PBS at pH 6.9, 20 mM NaCl and 2 mM DTT. A series of 2D ^1H-^15N HSQC spectra were recorded at HRP3 PWWP:H3K36me3/2/1/0 (residues 29–41) molar ratios of 1:0, 1:0.5, 1:1.5, 1:4, 1:6, 1:10, 1:15 and 1:20, respectively. The combined chemical shift perturbation was calculated using the following equation: Δδ = [(Δδ^1H)^2 + (Δδ^15N/5)^2]^1/2. Dissociation constants were calculated by fitting the data to a single-site ligand-binding model (SigmaPlot).

HRP3 PWWP E53A = target: T2, HRP3 PWWP E53A (Homo sapiens, UniProt Q9Y3E1, E53A); experiment: NMR titration of H3K36me3 peptide with HRP3 PWWP E53A; assay type: binding; details: H3 residues 29–41, 20 mM PBS pH 6.9, 298 K
T2 construct: using ^15N-labelled HRP3 PWWP (residues 1–110) dissolved in buffer; 6xHis-SUMO (cleaved yes); made in house; host or cells: Escherichia coli Rosetta (DE3)
Description: as §1

HRP3 PWWP WT = target: T3, HRP3 PWWP WT (Homo sapiens, UniProt Q9Y3E1); experiment: NMR titration of H3K36 peptides with wild-type HRP3 PWWP; assay type: binding; details: 15N-labelled HRP3 PWWP (1–110) WT, H3 residues 29–41, 20 mM PBS pH 6.9, 20 mM NaCl, 2 mM DTT, 298 K
T3 construct: using ^15N-labelled HRP3 PWWP (residues 1–110) dissolved in buffer; 6xHis-SUMO (cleaved yes); made in house; host or cells: Escherichia coli Rosetta (DE3)
Description: as §1

HRP3 PWWP F48A = target: T4, HRP3 PWWP F48A (Homo sapiens, UniProt Q9Y3E1, F48A); experiment: NMR titration of H3K36me3 peptide with HRP3 PWWP F48A; assay type: binding; details: H3 residues 29–41, 20 mM PBS pH 6.9, 298 K
T4 construct: using ^15N-labelled HRP3 PWWP (residues 1–110) dissolved in buffer; 6xHis-SUMO (cleaved yes); made in house; host or cells: Escherichia coli Rosetta (DE3)
Description: as §1

HepG2 cells = experiment: Fluorescence microscopy of GFP-HRP3 in HepG2 cells; assay type: cell-based, human; details: GFP fusion in HepG2 cells
Description: (§2) HepG2 (ATCC HB-8065) and HEK293T human embryonic kidney cells (ATCC #CRL-11268) were cultured in Dulbecco’s modified Eagle’s medium supplemented with 10% FBS. Stable overexpression of wild-type or mutant HRP3 in HepG2 cells was performed using FUGW lentiviral constructs expressing wild-type or mutant HRP3. Lentiviral vector infections ([47]) and plasmid transfections ([48]) were performed as previously described. Overexpression efficiency was determined by western blot.
The cells were first fixed with 4% paraformaldehyde in PBS buffer for 30 min at room temperature, and then washed with PBS buffer twice. The cells were permeabilized with 0.5% Triton X-100 in PBS buffer for 10 min followed with PBS washing twice. Then, the cells were incubated with1 μg/ml 4′,6-diamidino-2-phenylindole (DAPI) (C0060, Solarbio) in PBS for 5 min. After washing with PBS buffer twice, the cells were ready for microscopic observation. 3D structural illumination microscopy was performed using N-SIM Super-resolution Microscope System (Nikon) with an objective lens CFI Plan (Apochromat Lambda 40 ×, 0.95 numerical aperture; Nikon).

chromatin of HepG2 cells = experiment: ChIP-Seq of GFP-HRP3 variants in HepG2 cells; assay type: cell-based, human
Description: as §2
For chromatin immunoprecipitation, HepG2 cells were cross-linked with 1% formaldehyde at 37°C for 10 min and quenched with 0.125 M glycine for 5 min at room temperature. ChIP was performed using a ChIP assay kit (Millipore) according to the manufacturer’s protocol. Antibodies used for ChIP were GFP (gta-20, Chromo-Tek) and H3K36me3 (ab9050, abcam).
ChIP-Seq data were aligned to human genome hg19 using Bowtie 1.0 allowing one mismatch. Two biological replicates were performed and combined for the analysis. Analysis was performed using the Galaxy ([49]) and Cistrome ([50]) Platform and via custom R scripts for Bioconductor ([51]). Peak calling was performed using MACS2. Promoter definitions were downloaded from the UCSC browser ([52]). DNase I hypersensitivity and MNase-Seq data from ENCODE (GSM816662, GSM920557) ([53]) were used.

HRP3 PWWP aromatic cage = experiment: Crystal structure of apo-form HRP3 PWWP (8–94), MES in aromatic cage; assay type: binding, human; details: 0.95 Å
Description: Crystallization was conducted using the sitting drop vapour diffusion method by mixing an equal volume of protein and well solution. Apo-form HRP3 PWWP (8–94) was crystallized with crystallization buffer containing 0.2 M ammonium sulfate, 0.1 M MES monohydrate, pH 6.5 and 30% w/v polyethylene glycol monomethyl ether 5000. The crystallization buffer containing 12% 2,3-butanediol was used as the cryoprotectant.
Datasets for all crystals were collected at the beamlines of the Shanghai Synchrotron Radiation Facility (SSRF). The datasets were processed using HKL2000 ([33]), and the structures were solved by molecular replacement using the programme PHENIX ([34]) with the HDGF2 PWWP domain (PDB number: 3EAE) as the search model. The initial model was rebuilt in COOT ([35]) and further refined by PHENIX.

HRP3 PWWP [1] = experiment: MST binding of 5′-FAM-labelled dsDNAs to HRP3 PWWP; set-up: species or system human; details: 16-mer-TA versus 16-mer-random and 16-mer-GC
Description: All Mircoscale thermophoresis (MST) experiments were performed on a Monolith NT115 machine with 20% MST power and 100% LED power. All protein and DNA samples were dissolved in solution containing 50 mM KCl, 10 mM sodium cacodylate at pH 6.5 and 2 mM DTT. The MST samples were prepared by mixing HRP3(1-110) at concentrations ranging from 3 nM to 100 μM into a solution containing 200 nM 5′-FAM-labelled dsDNA. Experiments were performed using Monolith NT115 Standard Treated Capillaries, MO-K002. Dissociation constants were fitted with the MO Affinity Analysis software.
The DNA sequences used in this assay are as follows: 5′-FAM-16TA: 5′-[…]-3′; 5′-FAM-16GC: 5′-[…]-3′; and 5′-FAM-16random: 5′-[…]-3′.

HRP3 PWWP [2] = experiment: DNA geometry analysis of the PWWP/DNA complex structures; set-up: species or system human
Description: DNA geometry was analysed with the 3DNA ([42]) and Curves+ ([43]) programs. Electrostatic potentials were calculated using the DelPhi program ([44]). The minor groove width was measured according to the method described ([45]). In detail, the distances between the ith (i indicates the number of the base from one chain) phosphate atom from one chain and the (i + 4)th atom from the paired chain were used to describe the minor groove width at the ith base. Electrostatic potentials were calculated at the midpoints between the above phosphate atom pairs used to calculate the minor groove widths.

HRP3 PWWP [3] = experiment: ITC of HRP3 PWWP with dsDNAs; assay type: binding, human; details: 20°C, HRP3 PWWP (1–110), 10 mM PBS pH 7.0, 50 mM NaCl, 2 mM β-mercaptoethanol
Description: Isothermal titration calorimetry-based measurements were carried out at 20°C with a MicroCal iTC200 instrument. HRP3 PWWP (1–110) and various dsDNAs were dialysed overnight at 4°C in titration buffer containing 10 mM phosphate-buffered saline (PBS) at pH 7.0, 50 mM NaCl and 2 mM β-mercaptoethanol. Calorimetric titration data were fitted with the Origin software under the algorithm of one binding-site model.

T3 sequence (Q9Y3E1 1-110): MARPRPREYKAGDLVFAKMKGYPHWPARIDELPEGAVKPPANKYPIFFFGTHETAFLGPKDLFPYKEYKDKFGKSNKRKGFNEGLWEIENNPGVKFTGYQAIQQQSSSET
T1 sequence (Q9Y3E1 1-110 Y22A): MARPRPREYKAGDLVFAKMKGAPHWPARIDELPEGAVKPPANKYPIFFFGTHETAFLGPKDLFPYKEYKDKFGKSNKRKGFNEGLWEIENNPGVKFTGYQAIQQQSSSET
T4 sequence (Q9Y3E1 1-110 F48A limits assumed): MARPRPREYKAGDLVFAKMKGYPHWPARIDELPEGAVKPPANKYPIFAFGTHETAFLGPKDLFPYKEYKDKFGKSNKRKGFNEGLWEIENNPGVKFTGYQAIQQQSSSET
T2 sequence (Q9Y3E1 1-110 E53A limits assumed): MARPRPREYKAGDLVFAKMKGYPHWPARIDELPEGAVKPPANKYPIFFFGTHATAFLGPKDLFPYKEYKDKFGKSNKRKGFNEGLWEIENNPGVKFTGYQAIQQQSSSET

- Kd (HRP3 PWWP Y22A): 21 ± 9 mM
- Kd (HRP3 PWWP E53A): 8 ± 1.9 mM
- Kd (HRP3 PWWP WT): 1.4 ± 0.6 mM
- Kd (HRP3 PWWP F48A): 9.4 ± 2.1 mM
Compound: CC(C)[C@H](NC(=O)CNC(=O)CNC(=O)[C@@H](NC(=O)[C@H](C)NC(=O)[C@@H]1CCCN1C(=O)[C@H](C)N)[C@@H](C)O)C(=O)N[C@@H](CCCC[N+](C)(C)C)C(=O)N[C@@H](CCCCN)C(=O)N1CCC[C@H]1C(=O)N[C@@H](Cc1c[nH]cn1)C(=O)N[C@@H](CCCNC(=N)N)C(=O)N[C@@H](Cc1ccc(O)cc1)C(=O)O [H3K36me3]

Compound: HRP3: wild-type human HRP3 as GFP fusion protein in HepG2 cells
- subcellular localisation (HepG2 cells): enriched in the nucleus
- DNase I hypersensitivity and nucleosome density of HRP3-enriched regions (chromatin of HepG2 cells; ChIP-Seq versus ENCODE DNase I / MNase-Seq data): increased DNase I hypersensitivity and reduced nucleosome density
- chromatin binding / recruitment by ChIP-Seq (chromatin of HepG2 cells; ChIP-Seq with GFP antibody, HepG2, two biological replicates combined): enriched at promoters and gene bodies
- specific DNA-binding motif enrichment (chromatin of HepG2 cells; ChIP-Seq, HepG2): could not detect the enrichment of a specific DNA-binding motif

Compound: O=S(=O)(O)CCN1CCOCC1 [MES]
- position of bound molecule (HRP3 PWWP aromatic cage): positioned in the middle of the aromatic cage

Compound: 5′-TATATATATATATATA-3′ (DNA, 5' {FAM}, backbone not given here; double-stranded DNA, FAM label in MST assay) [16-mer-TA, 16-bp TA-rich dsDNA]
- fold higher affinity (HRP3 PWWP [1]): 2–3 fold
- average helical twist (HRP3 PWWP [2]; 3DNA): 37.1 °
- average propeller twist (HRP3 PWWP [2]; 3DNA): −11.2 °
- bending angle towards the minor groove per 6 bps (HRP3 PWWP [2]; Curve+ software): 2.9 °
- width of the minor groove, PWWP-binding region (HRP3 PWWP [2]; crystal structure of complex): 10.7 Å
- width of the minor groove, PWWP-free region (HRP3 PWWP [2]; crystal structure of complex): 10.8 Å
- TA-rich preference by ITC (HRP3 PWWP [3]): TA-rich preference was further verified by ITC-based measurements

From PMC6547440, “The HRP3 PWWP domain recognizes the minor groove of double-stranded DNA and recruits HRP3 to chromatin” (Nucleic Acids Research, 2019)
